In one series the test system is tomato protoplasts. Nature of the series: Recovery of chlorsulfuron resistant calli after transfection of tomato protoplasts. Format: cell-based, Solanum lycopersicon var Moneyberg. The following applies: ALS1/ALS2 alleles sequenced from chlorsulfuron resistant calli versus alleles seen only in protoplast sequence data. The protocol: (§1) For the protoplast transfections 10 μg of KG9387 and 20 μg of one of the sgRNA expressing plasmids (KG10177, KG10190, KG10191, KG10240) mixed with 500 μL (500000 protoplasts) of the protoplast suspension and 500 μL of PEG solution (400 g/l poly(ethylene glycol) 4000, Sigma-Aldrich #81240; 0.1M Ca(NO3)2) was then added and the transfection was allowed to take place for 20 minutes at room temperature. Control samples were also produced by omitting one or both of the plasmids from the transfection. Then, 10 mL of 0.275 M Ca(NO3)2 solution was added and thoroughly, but gently mixed in. The protoplasts were harvested by centrifugation for 5 minutes at 800 rpm and resuspended in 9M culture medium at a density of 0.5×10^6 per ml and transferred to a 4 cm diameter petri dish and an equal volume of 2% alginate solution (20 g/l Alginate-Na (Sigma-Aldrich #A0682), 0.14 g/l CaCl2.2H2O, 90 g/l mannitol) was added. […]
(§2) Total genomic DNA was isolated from tomato protoplasts (48 hrs post transfection) using the DNeasy Plant Mini Kit (Qiagen). […] After sequencing the reads derived from each sample were processed to identify the number and types of sequence changes present at the target site. […]

Series [1] deals with ALS1/ALS2 target sequence. As to the kind of experiment: Indel formation at the ALS1/ALS2 target sites in transfected tomato protoplasts (amplicon sequencing, MiSeq). Format: cell-based, Solanum lycopersicon var Moneyberg. Conditions: genomic DNA 48 hours after transfection. The protocol: as §1, §2

The source of these data is patent US12215363B2, “Balanced indels” (Keygene N.V., priority 2017, dated 2025).

As for “GQVPGGLMIGT: ALS amino acid change from other pairs of indels in the sequence data, not recovered in resistant calli”, the “Chlorsulfuron resistance phenotype of the altered ALS allele (in words)” value with tomato protoplasts is given as “not resistance alleles”. In the case of “GRRGGLIGT: ALS amino acid change from other pairs of indels in the sequence data, not recovered in resistant calli”, the “Chlorsulfuron resistance phenotype of the altered ALS allele (in words)” value with tomato protoplasts is listed as “not resistance alleles”.

B1: KG10240: cassette (SEQ ID NO. 28) expressing all sgRNAs of KG10177, KG10190 and KG10191 separated by tRNA sequences (nucleic acid)
DNA: GGAGTGATCAAAAGTCCCACATCGATCAGGTGATATATAGCAGCTTAGTTTATATAATGATAGAGTCGACATAGCGATTGAACAAAGCACCAGTGGTCTAGTGGTAGAATAGTACCCTGCCACGGTACAGACCCGGGTTCGATTCCCGGCTGGTGCACAAGTGCCGAGGAGGATGATGTTTTAGAGCTAGAAATAGCAAGTTAAAATAAGGCTAGTCCGTTATCAACTTGAAAAAGTGGCACCGAGTCGGTGCAACAAAGCACCAGTGGTCTAGTGGTAGAATAGTACCCTGCCACGGTACAGACCCGGGTTCGATTCCCGGCTGGTGCACATCCTCCTCGGCACTTGACGTTTTAGAGCTAGAAATAGCAAGTTAAAATAAGGCTAGTCCGTTATCAACTTGAAAAAGTGGCACCGAGTCGGTGCAACAAAGCACCAGTGGTCTAGTGGTAGAATAGTACCCTGCCACGGTACAGACCCGGGTTCGATTCCCGGCTGGTGCATTACCGGTCAAGTGCCGAGGGTTTTAGAGCTAGAAATAGCAAGTTAAAATAAGGCTAGTCCGTTATCAACTTGAAAAAGTGGCACCGAGTCGGTGCTTTTTTTCTAGACCCAGCTTTCTTGTACAAAGTTGGCATTACGCT
modifications: KG10240
Regarding B1, the “Sequence reads with indels at ALS1 and ALS2 target sites (in words)” value in series [1] was “resulted in reads that contained more than one indel”.
